# What was measured:
# Experiment in all cases: relative viability (nuclei count vs DMSO), 5 days (fraction); higher = more cells survive
# [1] = compound: C1=CC2=C(C=C(C(=C2N=C1)O)N=NC3=CC4=C(C=C3)C=C(C=C4)S(=O)(=O)O)S(=O)(=O)O + CS(=O)(=O)CCNCc1ccc(-c2ccc3ncnc(Nc4ccc(OCc5cccc(F)c5)c(Cl)c4)c3c2)o1 [Lapatinib] (partner 2 µM)
# Summary of the method: (§1)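 Lung cancer cell lines in 1536-well plates got either a single drug or a fixed anchor-drug dose together with five library-drug doses (not always all listed) in √10 steps, by pin tool, on the day after seeding. Nuclei were counted after 5 days, and relative viability is the treated-to-vehicle ratio of nuclei counts. Values are medians of duplicate plates.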
# [2] = compound: C1=CC2=C(C=C(C(=C2N=C1)O)N=NC3=CC4=C(C=C3)C=C(C=C4)S(=O)(=O)O)S(=O)(=O)O + O=C(c1cc(Cc2n[nH]c(=O)c3ccccc23)ccc1F)N1CCN(C(=O)C2CC2)CC1 [Olaparib] (partner 8 µM)
# Summary of the method: as §1
# [3] = compound: O=C(NC1CCNCC1)c1n[nH]cc1NC(=O)c1c(Cl)cccc1Cl [AT-7519] + Cc1cc(Nc2cc(N3CCN(C)CC3)nc(Sc3ccc(NC(=O)C4CC4)cc3)n2)n[nH]1 [Tozasertib] (partner 0.1 µM)
# Summary of the method: as §1
# [4] = compound: O=C(NC1CCNCC1)c1n[nH]cc1NC(=O)c1c(Cl)cccc1Cl [AT-7519] + Nc1ncn([C@H]2C[C@H](O)[C@@H](CO)O2)c(=O)n1 [Decitabine] (partner 2 µM)
# Summary of the method: as §1
Cell Line,relative viability ([1]; first compound 0.08 µM),relative viability ([1]; first compound 0.253 µM),relative viability ([1]; first compound 0.8 µM),relative viability ([1]; first compound 2.53 µM),relative viability ([1]; first compound 8 µM),relative viability ([2]; first compound 0.08 µM),relative viability ([2]; first compound 0.253 µM),relative viability ([2]; first compound 0.8 µM),relative viability ([2]; first compound 2.53 µM),relative viability ([2]; first compound 8 µM),relative viability ([3]; first compound 0.01 µM),relative viability ([3]; first compound 0.03162 µM),relative viability ([3]; first compound 0.3162 µM),relative viability ([3]; first compound 1 µM),relative viability ([4]; first compound 0.01 µM),relative viability ([4]; first compound 0.03162 µM),relative viability ([4]; first compound 0.3162 µM),relative viability ([4]; first compound 1 µM)
NCI-H322M,0.627,0.639,0.528,0.613,0.716,0.733,0.705,0.691,0.78,0.834,0.493,0.497,0.361,0.196,0.654,0.643,0.631,0.554
NCI-H358,0.436,0.393,0.469,0.486,0.483,0.656,0.555,0.551,0.57,0.569,0.111,0.116,0.0818,0.0852,0.202,0.193,0.198,0.112
NCI-H460,1.53,1.01,1.05,1.13,0.965,0.537,0.356,0.444,0.43,0.425,0.699,0.473,0.462,0.193,0.452,0.432,0.388,0.0681
NCI-H520,1.1,0.791,0.833,0.798,0.848,0.327,0.342,0.337,0.301,0.387,0.438,0.453,0.399,0.385,0.547,0.492,0.507,0.395
NCI-H596,1.11,1.02,0.977,1.01,1.01,0.7,0.798,0.639,0.746,0.747,0.78,0.811,1,0.849,0.939,0.967,0.789,1.16
NCI-H647,1.64,0.828,0.974,0.998,0.904,0.516,0.48,0.522,0.65,0.545,0.44,0.218,0.22,0.227,0.379,0.37,0.416,0.237
NCI-H650,0.91,0.786,0.838,0.86,0.525,0.458,0.404,0.386,0.384,0.402,0.784,0.646,0.716,0.675,0.387,0.281,0.335,0.274
NCI-H661,0.541,0.49,0.431,0.626,0.49,0.744,0.744,0.831,0.761,0.72,0.378,0.352,0.392,0.314,0.568,0.538,0.534,0.254
NCI-H727,1.09,0.873,0.768,0.978,0.701,0.635,0.676,0.684,0.859,0.665,0.574,0.551,0.519,0.367,0.927,0.746,0.874,0.509
NCI-H838,1.29,0.926,0.934,0.926,1.06,0.781,0.739,0.743,0.777,0.77,0.315,0.277,0.291,0.187,0.479,0.45,0.383,0.152
NCI-H1355,1.02,0.999,0.905,1.05,1.08,0.736,0.717,0.748,0.728,0.711,0.566,0.535,0.537,0.508,0.347,0.347,0.359,0.331
NCI-H1395,1.14,1.18,1.19,1.01,0.966,0.498,0.47,0.489,0.469,0.402,0.788,0.782,0.716,0.668,0.658,0.726,0.691,0.582
NCI-H1437,0.896,0.791,0.781,0.811,0.748,0.617,0.611,0.655,0.638,0.613,0.418,0.399,0.402,0.34,0.527,0.59,0.548,0.347
NCI-H1650,0.753,0.739,0.714,0.821,0.734,0.825,0.677,0.781,0.812,0.894,0.532,0.436,0.392,0.148,0.401,0.388,0.431,0.204
NCI-H1651,0.764,0.865,0.781,0.911,0.964,0.187,0.176,0.196,0.208,0.181,0.7,0.679,0.646,0.556,0.678,0.555,0.626,0.614
NCI-H1666,0.768,0.606,0.473,0.718,0.618,0.863,0.754,0.762,0.745,0.712,0.539,0.571,0.501,0.413,0.819,0.725,0.774,0.673
NCI-H1734,1.13,1.03,1.05,0.911,1.09,0.609,0.588,0.697,0.642,0.624,0.296,0.261,0.25,0.102,0.46,0.463,0.486,0.351

# Reference: the supplement of paper PMC10307832
